Key:
in vitro = conditions: male; for Measured concentration of analyte PEA, 0 min / Measured concentration of analyte PEA, 10 min / Measured concentration of analyte PEA, 20 min / Measured concentration of analyte PEA, 30 min / Measured concentration of analyte PEA, 60 min / % Remaining of Initial, 0 min / % Remaining of Initial, 10 min / % Remaining of Initial, 20 min / % Remaining of Initial, 30 min / % Remaining of Initial, 60 min: 1 μM; for % Remaining of Initial, 0 min / % Remaining of Initial, 10 min / % Remaining of Initial, 20 min / % Remaining of Initial, 30 min / % Remaining of Initial, 60 min / microsomal CLint at 1 μM / half-life at 1 μM: microsomes; for % Remaining of Initial, 0 min: 0 h; for % Remaining of Initial, 30 min: 0.5 h; for % Remaining of Initial, 60 min: 1 h
Method: (§1) Reaction mixture, minus cofactors, was prepared as described below. Test article was added into the reaction mixture at a final concentration of 1 μM. […] An aliquot of the reaction mixture (without cofactor) was equilibrated in a shaking water bath at 37° C. for 3 minutes. The reaction was initiated by the addition of cofactor, and the mixture was incubated in a shaking water bath at 37° C. Aliquots (100 μL) were withdrawn at 0, 10, 20, 30, and 60 minutes. Test article samples were immediately combined with 300 μL of ice-cold acetonitrile containing 1% formic acid. Control samples were immediately combined with 400 μL of ice-cold 50/50 acetonitrile (ACN)/dH2O containing 0.1% formic acid and internal standard to terminate the reaction. Samples were then mixed and centrifuged to precipitate proteins. Calibration standards were prepared in matched matrix. Samples and standards were assayed by LC-MS/MS using electrospray ionization for both dosed prodrug and expected drug (PEA). Analytical conditions are outlined in Appendix 8-1. Test article concentration at each time point was compared to test article concentration at time 0 to determine the percent remaining at each time point. Half-lives were calculated using GraphPad software, fitting to a single-phase exponential decay equation.
Reaction mixture, minus cofactors, was prepared as described below. Test article was added into the reaction mixture at a final concentration of 1 μM. […] An aliquot of the reaction mixture (without cofactor) was equilibrated in a shaking water bath at 37° C. for 5 minutes. Reaction was initiated by the addition of cofactor, and the mixture was incubated in a shaking water bath at 37° C. Aliquots (100 μL) were withdrawn at 0, 10, 20, 30, and 60 minutes. Test article samples were immediately combined with 300 μL of ice-cold acetonitrile containing 1% formic acid. Control samples were immediately combined with 400 μL of ice-cold 50/50 acetonitrile (ACN)/dH2O containing 0.1% formic acid and internal standard to terminate the reaction. Samples were then mixed and centrifuged to precipitate proteins. Calibration standards were prepared in matched matrix. Samples and standards were assayed by LC-MS/MS using electrospray ionization for both the dosed prodrug and the expected drug (PEA). Analytical conditions are outlined in Appendix 10-1. Test article concentration at each time point was compared to the test article concentration at time 0 to determine the percent remaining at each time point. Half-lives were calculated using GraphPad software, fitting to a single-phase exponential decay equation.
as §1, with “minutes. Reaction” for “minutes. The reaction”, “300 μL,” for “300 μL”, “Appendix 13-1.” for “Appendix 8-1.”
Reaction mixture, minus cofactors, was prepared as described below.

[1] = rat, in vivo, po
[2] = Summary of half life data (Table A), matrix not stated; format: in vitro ADME

Measured concentration of analyte PEA, 0 min (in vitro; Beagle, dog) [µM] | Measured concentration of analyte PEA, 10 min (in vitro; Beagle, dog) [µM] | Measured concentration of analyte PEA, 20 min (in vitro; Beagle, dog) [µM] | Measured concentration of analyte PEA, 30 min (in vitro; Beagle, dog) [µM] | Measured concentration of analyte PEA, 60 min (in vitro; Beagle, dog) [µM] | % Remaining of Initial, 0 min (in vitro; Beagle, dog) [%] | % Remaining of Initial, 10 min (in vitro; Beagle, dog) [%] | % Remaining of Initial, 20 min (in vitro; Beagle, dog) [%] | % Remaining of Initial, 30 min (in vitro; Beagle, dog) [%] | % Remaining of Initial, 60 min (in vitro; Beagle, dog) [%] | microsomal CLint at 1 μM (in vitro; Beagle, dog) [µL/min/mg] | half-life at 1 μM (in vitro; Beagle, dog) [min] | Measured concentration of analyte PEA, 0 min (in vitro; CD-1, mouse) [µM] | Measured concentration of analyte PEA, 10 min (in vitro; CD-1, mouse) [µM] | Measured concentration of analyte PEA, 20 min (in vitro; CD-1, mouse) [µM] | Measured concentration of analyte PEA, 30 min (in vitro; CD-1, mouse) [µM] | Measured concentration of analyte PEA, 60 min (in vitro; CD-1, mouse) [µM] | % Remaining of Initial, 0 min (in vitro; CD-1, mouse) [%] | % Remaining of Initial, 10 min (in vitro; CD-1, mouse) [%] | % Remaining of Initial, 20 min (in vitro; CD-1, mouse) [%] | SMILES | also measured
0.39 | 0.42 | 0.32 | 0.26 | 0.18 | 100 | <1.0 | <1.0 | <1.0 | <1.0 | > 1380 | < 1 | 0.52 | 0.29 | 0.18 | 0.11 | 0.036 | 100 | <1.0 | <1.0 | CCCCCCCCCCCCCCCC(=O)NCCOC(=O)CCC(=O)OCC(O)CO (stereo not drawn) [Compound I-9] | % Remaining of Initial, 30 min (in vitro; CD-1, mouse): <1.0%; % Remaining of Initial, 60 min (in vitro; CD-1, mouse): <1.0%; microsomal CLint at 1 μM (in vitro; CD-1, mouse): > 1380 µL/min/mg; half-life at 1 μM (in vitro; CD-1, mouse): < 1 min; PEA-prodrug in plasma samples [1]: not detectable
0.032 | 0.32 | 0.26 | 0.20 | 0.097 | 100 | 3.6 | <1.0 | <1.0 | <1.0 | 665 | 2.1 | 0.22 | 0.32 | 0.18 | 0.12 | 0.030 | 100 | 3.2 | <1.0 | CCCCCCCCCCCCCCCC(=O)NCCOC(=O)CCC(=O)OCC(COC(=O)CCC)OC(=O)CCC (stereo not drawn) [Compound I-11] | half-life [2]: < 1 min; % Remaining of Initial, 30 min (in vitro; CD-1, mouse): <1.0%; % Remaining of Initial, 60 min (in vitro; CD-1, mouse): <1.0%; microsomal CLint at 1 μM (in vitro; CD-1, mouse): 687 µL/min/mg; half-life at 1 μM (in vitro; CD-1, mouse): 2 min; Bioavailability ([1]; male, Sprague-Dawley): 4.5%
